# Data published in PMC7698453, “4-Benzyloxylonchocarpin and Muracatanes A-C from Ranunculus muricatus L. and Their Biological Effects” (Biomolecules, 2020).
# Counter-ions that a name gives are not always drawn. Like-named read-outs stand apart in the source and are kept apart here.
# How the values were obtained:
# [1] = biological target: T1, α-Glucosidase type I (EC 3.2.1.20 from Saccharomyces cerevisiae) (Saccharomyces cerevisiae, UniProt P53341); test: α-Glucosidase assay (p-NPG substrate); type: biochemical; settings: for inhibition at 10 µM: at concentration of 10 µM
# T1 construct: purchased Sigma-Aldrich (St. Louis, MO, USA)
# T1 sequence (P53341 whole entry): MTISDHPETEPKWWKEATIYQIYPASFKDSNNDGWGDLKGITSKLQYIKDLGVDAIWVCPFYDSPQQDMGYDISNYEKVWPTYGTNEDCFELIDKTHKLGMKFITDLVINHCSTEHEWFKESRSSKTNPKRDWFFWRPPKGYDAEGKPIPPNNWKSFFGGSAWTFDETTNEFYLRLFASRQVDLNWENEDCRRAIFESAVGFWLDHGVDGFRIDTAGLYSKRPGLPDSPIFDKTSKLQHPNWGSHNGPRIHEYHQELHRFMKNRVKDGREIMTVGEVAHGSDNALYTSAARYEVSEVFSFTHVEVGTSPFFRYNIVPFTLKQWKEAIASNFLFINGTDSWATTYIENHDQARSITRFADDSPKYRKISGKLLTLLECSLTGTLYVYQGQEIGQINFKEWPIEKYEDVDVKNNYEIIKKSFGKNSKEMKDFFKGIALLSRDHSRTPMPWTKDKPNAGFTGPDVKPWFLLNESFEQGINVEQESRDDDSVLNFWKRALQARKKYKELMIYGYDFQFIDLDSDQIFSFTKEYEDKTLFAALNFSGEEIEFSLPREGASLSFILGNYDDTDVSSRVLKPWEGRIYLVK
# Method: The α-glucosidase assay was applied to pure natural product 3 according to the protocol described by Schmidt and co-workers. In short, the assays were performed in 96-well microplates using a Multiskan FC microplate photometer (Thermo Fisher Scientific, Waltham, MA, USA) controlled by SkanIt 2.5.1 software (Thermo Fisher Scientific, Waltham, MA, USA) with final volumes of 200 µL in each well. A phosphate buffer (100 mM) was prepared by dissolving 2.65 g sodium dihydrogen phosphate dihydrate, 4.70 g disodium hydrogen phosphate, and 0.10 g sodium azide in 500 mL Milli-Q water and adjusting the pH to 7.5. […] The microplate was shaken for 2 min, and incubated for 10 min at 28 °C. Then, 20 µL of p-NPG substrate (10 mM, 60.2 mg in 20 mL buffer) was added to each well to initiate the reaction. The enzyme activity (expressed as cleavage rate ΔAU/s) was determined by measuring the absorbance at 405 nm every 30 s for 35 min, and percentage inhibition was calculated according to the equation: Percent inhibition=Slope(blank)−Slope(sample)/Slope(blank)× 100% where slopeblank is the enzyme activity of the wells containing buffer, enzyme, and substrate and slopesample is the enzyme activity in the wells containing buffer, enzyme, substrate, and sample.
# [2] = Sulforhodamine B cytotoxicity assay, A2780; type: cell-based; settings: human, A2780 ovarian carcinoma cells; SRB assay, tested 1-30 µM
# Method: (§1) The cytotoxicity of the natural products was screened by using the sulforhodamine-B (Kiton Red S, ABCR, Karlsruhe, Germany) in micro culture colorimetric assay using 96-well plates with the seeding of the cells on day 0 applying appropriate cell densities to prevent confluence of the cells during the period of the experiment. On day 1, the cells were treated with six different concentrations (1, 3, 7, 12, 20 and 30 µM); thereby, the final concentration of DMSO was always ≤ 0.5%, generally regarded as non-toxic to the cells. On day 4, the supernatant medium was discarded; the cells were fixed with 10 % trichloroacetic acid. After another day at 4 °C, the cells were washed in a strip washer and dyed with the SRB solution (100 µL, 0.4% in 1% acetic acid) for about 20 min and this was followed by washing of the plates (four times, 1% acetic acid) and air-drying overnight. Furthermore, tris base solution (200 µL, 10 mM) was added to each well and absorbance was measured at λ = 570 nm employing a reader (96 wells, Tecan Spectra, Crailsheim, Germany).
# [3] = Sulforhodamine B cytotoxicity assay, HT29; type: cell-based; settings: human, HT29 colorectal adenocarcinoma cells; SRB assay, tested 1-30 µM
# Method: as §1
# [4] = Sulforhodamine B cytotoxicity assay, MCF7; type: cell-based; settings: human, MCF7 breast cancer cells; SRB assay, tested 1-30 µM
# Method: as §1
# [5] = Sulforhodamine B cytotoxicity assay, SW1736; type: cell-based; settings: human, SW1736 thyroid carcinoma cells; SRB assay, tested 1-30 µM
# Method: as §1
# [6] = Sulforhodamine B cytotoxicity assay, FaDu; type: cell-based; settings: human, FaDu pharynx carcinoma cells; SRB assay, tested 1-30 µM
# Method: as §1
# BChE (from equine serum) = biological target: T2, BChE (from equine serum) (Equus caballus, UniProt P81908); test: Cholinesterase assay (Ellman's method), BChE; type: biochemical; settings: for inhibition at 10 µM: read-out: BChE % Inhibition
# T2 construct: BChE (from equine serum); purchased Merck (Darmstadt, Germany); host or cells: equine serum
# T2 sequence (P81908 whole entry): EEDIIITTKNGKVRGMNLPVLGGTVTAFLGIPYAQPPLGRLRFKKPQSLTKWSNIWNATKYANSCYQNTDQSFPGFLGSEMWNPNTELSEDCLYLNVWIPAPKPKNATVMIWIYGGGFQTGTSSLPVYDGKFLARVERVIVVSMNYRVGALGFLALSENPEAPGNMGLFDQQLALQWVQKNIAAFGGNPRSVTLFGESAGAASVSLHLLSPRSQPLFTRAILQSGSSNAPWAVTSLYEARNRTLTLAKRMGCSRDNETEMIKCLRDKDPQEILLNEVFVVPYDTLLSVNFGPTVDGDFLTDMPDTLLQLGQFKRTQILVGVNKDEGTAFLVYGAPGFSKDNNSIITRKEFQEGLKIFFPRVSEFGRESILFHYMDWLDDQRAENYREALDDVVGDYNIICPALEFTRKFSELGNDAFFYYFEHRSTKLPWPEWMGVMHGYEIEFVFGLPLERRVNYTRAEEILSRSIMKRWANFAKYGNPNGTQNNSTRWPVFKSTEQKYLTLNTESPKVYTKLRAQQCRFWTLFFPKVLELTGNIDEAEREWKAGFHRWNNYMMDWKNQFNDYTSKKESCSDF
# Method: (§2) A solution of tris(hydroxymethyl)-aminomethane (606 mg) in twice-distilled water (100 mL) was adjusted to a pH of 8.0 ± 0.1 with HCl to get a 50 mM Tris-HCl buffer solution. The AChE solution holding 2.005 U/mL was prepared by dissolving the enzyme (271 U/mg, 0.037 mg) in freshly prepared buffer pH 8.0 (5 mL) comprising extra NaN3 (0.98 mg), and for the BChE solution with the concentration of 2.040 U/mL: the enzyme (7.54 U/mg, 1.353 mg) was dissolved in freshly prepared buffer pH 8.0 (5 mL) comprising NaN3 (0.98 mg). The DTNB solution with the concentration of 3 mM was prepared by dissolving DTNB (23.8 mg) in buffer pH 8.0 (20 mL) and this was followed by the addition of MgCl2 (38.0 mg) and NaCl (116.8 mg). The ATChI solution with the concentration of 15 mM was prepared by dissolving ATChI (43.4 mg) in twice-distilled water (10 mL). Furthermore, all solutions were stored in Eppendorf tubes in the refrigerator or freezer. […] The final concentrations for the enzymatic assays were obtained by diluting the stock solution with twice-distilled water.
# (§3) A mixture of the tested natural product solutions (25 µL, 3 different concentrations and one blank), DTNB solution (125 μL) and enzyme solution (25 μL, AChE or BChE) was incubated at 30 °C for 20 min in 96-well microplates followed by the addition of the substrate (25 μL, at 4 different concentrations). The final substrate concentrations were as follows: [ATChI] = 0.9375 mM, 0.625 mM, […], and 0.1875 mM. Moreover, the absorbance (λ = 415 nm) was measured at 30 °C for 30 min at 1 min intervals. […] Ki and Ki’ were deduced from Lineweaver–Burk, Dixon, and Cornish–Bowden plots as well as the mode of inhibtion. The relative inhibition was deduced as the quotient of the slopes (compound divided by blank) of the linear ranges. The concentration of each compound was 10 µM while the concentration was ATChI = 0.625 mM.
# [7] = biological target: T3, AChE (from Electrophorus electricus) (Electrophorus electricus, UniProt O42275); test: biochemical; type: biochemical; settings: for inhibition at 10 µM: at concentration of 10 µM, ATChI 0.625 mM
# T3 construct: purchased Merck (Darmstadt, Germany)
# T3 sequence (O42275 24-633): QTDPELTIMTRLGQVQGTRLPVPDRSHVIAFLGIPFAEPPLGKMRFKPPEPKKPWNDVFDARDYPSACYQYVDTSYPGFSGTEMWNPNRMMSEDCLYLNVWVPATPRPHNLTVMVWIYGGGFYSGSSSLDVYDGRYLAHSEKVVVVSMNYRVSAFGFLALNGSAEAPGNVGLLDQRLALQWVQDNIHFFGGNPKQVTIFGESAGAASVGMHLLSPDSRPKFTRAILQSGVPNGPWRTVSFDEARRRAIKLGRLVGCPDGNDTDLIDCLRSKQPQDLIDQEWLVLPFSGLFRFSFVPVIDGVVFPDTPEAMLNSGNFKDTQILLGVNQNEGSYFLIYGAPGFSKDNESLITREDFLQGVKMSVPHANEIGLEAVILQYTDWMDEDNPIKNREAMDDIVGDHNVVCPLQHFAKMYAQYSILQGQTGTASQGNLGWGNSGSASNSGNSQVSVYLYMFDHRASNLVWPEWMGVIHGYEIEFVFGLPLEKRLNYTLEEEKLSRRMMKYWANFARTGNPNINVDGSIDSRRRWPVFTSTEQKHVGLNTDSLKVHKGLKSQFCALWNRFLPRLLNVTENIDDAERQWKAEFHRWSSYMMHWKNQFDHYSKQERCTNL
# Method: as §2, §3
# [8] = Ki' (mixed-mode inhibition), from Lineweaver–Burk, Dixon and Cornish–Bowden plots
smiles,measurement,setting,value
"O=C1c2ccc(O)cc2C(=O)c2c(O)ccc(O)c21 [Compound 3, 1,4,6-trihydroxyanthracene-9,10-dione]",IC50,[1],164 ± 83 µM
same,inhibition at 10 µM,[1],80.4%
same,IC50 at 3 days,[2],> 30 µM
same,IC50 at 3 days,[3],> 30 µM
same,IC50 at 3 days,[4],> 30 µM
same,IC50 at 3 days,[5],> 30 µM
same,IC50 at 3 days,[6],> 30 µM
"COc1ccc2c3c1O[C@H]1C[C@@H](O)C=C[C@@]31CCN(C)C2 [GH, Galantamine hydrobromide, reference compound]",inhibition at 10 µM,BChE (from equine serum),54.8%
same,mode of inhibition of BChE,BChE (from equine serum); results not shown,competitive inhibitor
"CC1(C)C=Cc2c(ccc(C(=O)/C=C/c3ccc(OCc4ccccc4)cc3)c2O)O1 [Compound 1, (E)-3-(4-(benzyloxy)phenyl)-1-(5-hydroxy-2,2-dimethyl-2H-chromen-6-yl)prop-2-en-1-one]",mode of inhibition of AChE,[7],mixed-mode type inhibitor
same,AChE Ki',[7]; [8],3.54 ± 0.24 µM
same,Ki,[7]; [8],3.54 µM
same,inhibition at 10 µM,[7],97.4%
same,Ki,"[7]; from Lineweaver–Burk, Dixon and Cornish–Bowden plots",5.39 ± 0.51 µM
same,inhibition at 10 µM,BChE (from equine serum); at concentration of 10 µM,27.3%
same,IC50 at 3 days,[2],> 30 µM
same,IC50 at 3 days,[3],> 30 µM
same,IC50 at 3 days,[4],> 30 µM
same,IC50 at 3 days,[5],> 30 µM
same,IC50 at 3 days,[6],> 30 µM
"COc1ccc(/C=C/C(=O)c2ccc3c(c2O)C=CC(C)(C)O3)cc1 [Compound 5, 4-methoxylonchocarpin]",inhibition at 10 µM,[7],49.9%
same,inhibition at 10 µM,BChE (from equine serum); at concentration of 10 µM,8.7%
same,inhibition at 10 µM,[1],36.1%
same,IC50 at 3 days,[2],25.4 µM
same,IC50 at 3 days,[3],20.2 µM
same,IC50 at 3 days,[4],23.7 µM
same,IC50 at 3 days,[5],26.2 µM
same,IC50 at 3 days,[6],> 30 µM
"COC(=O)C(Cc1ccc2c(c1OC)C(=O)c1cccc(OC)c1C2=O)C(=O)OC [Compound 2, dimethyl 2-((1,5-dimethoxy-9,10-dioxo-9,10-dihydroanthracen-2-yl)methyl)malonate]",inhibition at 10 µM,[1],13.4%
same,IC50 at 3 days,[2],> 30 µM
same,IC50 at 3 days,[3],> 30 µM
same,IC50 at 3 days,[4],> 30 µM
same,IC50 at 3 days,[5],> 30 µM
same,IC50 at 3 days,[6],> 30 µM
